Source: US10907208B2, “Method for screening agents promoting skin barrier function and method for evaluating skin barrier function taking epidermal serine racemase and/or D-serine level as indicator” (Shiseido Company, Ltd, priority 2014, dated 2021)

Experiments:
Assay type in all cases: cell-based, human
cornuline (CRNN) gene = test: Real-time PCR gene expression in three-dimension culture of keratinocytes (3D skin model), cornuline; details: D-Ser 100 μM, 7 days, corrected by MRPL19, FIG. 6
Method: (§1) Human normal keratinocytes were seeded on polycarbonate insert (Millipore) having 12 mm of diameter and 0.4 μm of bore diameter. Then, Human normal keratinocytes were cultured for three days under 5% CO2 atmosphere at 37° C. by adding Cnt-Prime, Epithelial Culture Medium (CELLnTEC Advanced Cell Systems AG) inside and outside of the insert, followed by being cultured for 24 hours by substituting with Cnt-prime 3D Barrier medium (CELLnTEC Advanced Cell Systems AG). […]
(§2) Total RNA extracted by means of Trizol reagent (Invitrogen) was subjected to NanoDrop 1000 Spectrophotometer (Thermo Fisher Scientific) to determine RNA concentration, and then was converted to cDNA by using SuperScriptVIL0 (Invitrogen). Relative expression amount of genes of fillagrin (FLG), cornuline (CRNN) and repetin (RPTN), and mitochondrial ribosome protein L19 (MRPL19) which was used as an internal control gene was determined. […]
(§3) Relative expression amount of the target gene of each group was determined by means of correction using the expression amount of mitochondrial ribosome protein L19 gene (MRPL19) as an internal control (FIGS. 5-7). […]

fillagrin (FLG) gene = test: Real-time PCR gene expression in three-dimension culture of keratinocytes (3D skin model), fillagrin; details: D-Ser 100 μM, 7 days, corrected by MRPL19, FIG. 5
Method: as §1, §2, §3

repetin (RPTN) gene = test: Real-time PCR gene expression in three-dimension culture of keratinocytes (3D skin model), repetin; details: D-Ser 100 μM, 7 days, corrected by MRPL19, FIG. 7
Method: as §1, §2, §3

With `N[C@H](CO)C(=O)O` [D-serine] the “expression level of cornuline gene” value (cornuline (CRNN) gene) was “increases”, the “expression level of cornuline gene” value (cornuline (CRNN) gene; listed as D-Ser) was “increased” and the “expression level of fillagrin gene” value (fillagrin (FLG) gene) was “increases”. The “expression level of fillagrin gene” value (fillagrin (FLG) gene; listed as D-Ser) was “increased”, the “expression level of repetin gene” value (repetin (RPTN) gene) was “increases” and the “expression level of repetin gene” value (repetin (RPTN) gene; listed as D-Ser) was “increased”.
